Patent US20260216238A1, “TETRATHIOMOLYBDIC ACID FOR USE IN TREATING COPPER METABOLISM-ASSOCIATED DISEASES OR DISORDERS (WILSON DISEASE)” (Alexion Pharmaceuticals, Inc., priority 2023, published 2026)

System: patients with Wilson disease (WD)
Test: UWDRS Part III total score, functional subscale and individual items (neurological examination)
Format: in vivo, human
Details: for UWDRS Part III (0-175) change from baseline, Mean (SD) / UWDRS Part III Functional Subscale (0-10) change from baseline, Mean (SD): pooled Studies 301 and 201
Experimental: The UWDRS scoring system was developed specifically for the motor and movement disorders associated with chronic copper neurotoxicity in WD. Some individual items/subscales of the UWDRS Part III (arising from a chair, gait, handwriting, and speech) in addition to the UWDRS Parts I, II, and III overall, were assessed to further define the range of burdensome signs and symptoms of WD, so as to further understand the assessment of treatment effects on patients with WD. The UWDRS scores for consciousness (Part I) and abnormal neurologic examination findings (Part III) will be determined by a trained neurologist rater who is blinded to study treatment randomization. These scores were used to provide a rigorous dataset for evaluating changes from baseline.
Unified Wilson Disease Rating Scale (Parts I, II, and III): The UWDRS is a clinical rating scale designed to evaluate the neurological manifestations of WD that generally can be divided into 3 movement disorder syndromes: dystonic, ataxic, and Parkinsonian syndrome. The UWDRS comprises 3 parts: UWDRS Part I (level of consciousness, item 1), UWDRS Part II (a patient-reported review of daily activity items [disability], items 2 to 11), and UWDRS Part III (a detailed neurological examination, items 12 to 34).
The UWDRS Part I and Part III were assessed by a neurologist who is blinded to the treatment randomization, while UWDRS Part II may be reported to a non-blinded member of the study team by the patient, family member, or caregiver. The UWDRS has not been formally evaluated in adolescents. However, the components of Part I (level of consciousness), Part II (patient or caregiver-reported disability) and Part III (neurologic examination findings) were not fundamentally different between adults and adolescents. Patients aged 12 years and older were expected to be able to comply with UWDRS assessments.
Pooled results from all such participants will be integrated together into one timeline to allow analyses of changes in UWDRS, long-term copper control, and long-term safety laboratory data.
Endpoints (directly measured non-ceruloplasmin-bound copper [dNCC], UWDRS III (rater blinded) total and individual item scores, Clinical Global Impression-Improvement [CGI-I]) were evaluated at baseline (BL) and Week 48 (W48). Normalization (score decrease to 0), improvement (≥1 point decrease), stability (no change), or worsening (≥1 point increase) of total and individual UWDRS III item scores were evaluated at W48.

[1] = Subpopulation E (incomplete or intolerant responders), Week 48, MMRM
[2] = Subpopulation E (incomplete or intolerant responders), Week 48, TTM N=79, SoC N=38

In the case of bis-choline tetrathiomolybdate [TTM], the “UWDRS Part III score change (mean)” value (0-48W, symptomatic patients) is reported as −2.91, the “UWDRS symptom: Arising from chair” value (BL) is reported as 85 and the “UWDRS symptom: Arm and hand Dystonia” value (BL) is reported as 64. The “UWDRS symptom: Cervical Dystonia” value (BL) was 74, the “UWDRS symptom: Chorea” value (BL) was 90 and the “UWDRS symptom: Facial Expression” value (BL) was 57. The “UWDRS symptom: Finger Taps” value (BL) was 44, the “UWDRS symptom: Finger to Nose” value (BL) was 67 and the “UWDRS symptom: Gait” value (BL) was 59. The “UWDRS symptom: Handwriting” value (BL) was 55, the “UWDRS symptom: Head Tremor” value (BL) was 84 and the “UWDRS symptom: Involuntary Crying” value (BL) was 99. For the same substance, the “UWDRS symptom: Jaw Tremor” value (BL) was 99, the “UWDRS symptom: Leg Ability” value (BL) was 62 and the “UWDRS symptom: Oculomotor” value (BL) was 89. For the same substance, the “UWDRS symptom: Postural Arm Tremor” value (BL) was 49, the “UWDRS symptom: Postural Leg Tremor” value (BL) was 68 and the “UWDRS symptom: Posture” value (BL) was 67. The “UWDRS symptom: Pyramidal Signs” value (BL) was 89, the “UWDRS symptom: RAM of Hands” value (BL) was 48 and the “UWDRS symptom: Rigidity” value (BL) was 58. For the same substance, the “UWDRS symptom: Speech” value (BL) was 44, the “UWDRS symptom: Stereotyped Actions” value (BL) was 93 and the “UWDRS symptom: Tremor at rest” value (BL) was 75. The “UWDRS symptom: Wing-beating tremor” value (BL) was 64, the “UWDRS-III, observed value, Mean (SD)” value (Baseline, N=220) was 15.43 (19.833) and the “UWDRS Part III (0-175), Change from Baseline at 48 weeks, LSM” value (Study 301 Full Analysis Set) was −0.60. For the same substance, the “UWDRS Part III (0-175), Change from Baseline at 48 weeks, Mean” value (Study 301 Full Analysis Set) was −2.20, the “UWDRS Part III functional subscale (0-10), Change from Baseline at 48 weeks, LSM” value (Study 301 Full Analysis Set) was 0.001 and the “UWDRS Part III functional subscale (0-10), Change from Baseline at 48 weeks, Mean” value (Study 301 Full Analysis Set) was −0.147. The “UWDRS Part III-arising from chair (0-4), Change from Baseline at 48 weeks, LSM” value (Study 301 Full Analysis Set) was 0.0, the “UWDRS Part III-arising from chair (0-4), Change from Baseline at 48 weeks, Mean” value (Study 301 Full Analysis Set) was 0.0 and the “UWDRS Part III-gait (0-10), Change from Baseline at 48 weeks, LSM” value (Study 301 Full Analysis Set) was 0.06. The “UWDRS Part III-gait (0-10), Change from Baseline at 48 weeks, Mean” value (Study 301 Full Analysis Set) was −0.06, the “UWDRS Part III-handwriting (0-4), Change from Baseline at 48 weeks, LSM” value (Study 301 Full Analysis Set) was −0.1 and the “UWDRS Part III-handwriting (0-4), Change from Baseline at 48 weeks, Mean” value (Study 301 Full Analysis Set) was −0.1. For the same substance, the “UWDRS Part III-speech (0-4), Change from Baseline at 48 weeks, LSM” value (Study 301 Full Analysis Set) was 0.0, the “UWDRS Part III-speech (0-4), Change from Baseline at 48 weeks, Mean” value (Study 301 Full Analysis Set) was −0.1 and the “UWDRS Part III change from baseline, LSM” value [1] was −2.52. For the same substance, the “UWDRS Part III change from baseline, LSM Diff (TTM vs SoC)” value [1] was −0.53, the “UWDRS Part III change from baseline, Mean” value [2] was −2.64 and the “UWDRS Part III change from baseline, Median” value [2] was −1.00. For the same substance, the “UWDRS Part III, Change from Baseline, Max” value [2] was 31.0, the “UWDRS Part III, Change from Baseline, Min” value [2] was −28.0, and the “UWDRS Part III, Change from Baseline, Q1” value [2] was −6.00,. The “UWDRS Part III, Change from Baseline, Q3” value [2] was 0.00, the “UWDRS-III change from baseline, Mean (SD)” value (shortened to “UWDRS-III change … (SD)”) (TTM exposure 4 weeks, N=215) was −0.72 (6.701) and the “UWDRS Part III (0-175) change from baseline, Mean (SD)” value (“UWDRS Part III (0-175) change … (SD)” below) (TTM exposure 4 weeks) was −0.72 (6.701). For the same substance, the “UWDRS Part III Functional Subscale (0-10) change from baseline, Mean (SD)” value (TTM exposure 4 weeks) was −0.072 (0.6009), the “UWDRS-III change … (SD)” value (TTM exposure 12 weeks, N=204) was −1.11 (7.065) and the “UWDRS Part III (0-175) change … (SD)” value (TTM exposure 12 weeks) was −1.11 (7.065). For the same substance, the “UWDRS Part III Functional Subscale (0-10) change from baseline, Mean (SD)” value (TTM exposure 12 weeks) was −0.137 (0.7864), the “UWDRS-III change … (SD)” value (TTM exposure 24 weeks, N=182) was −0.97 (8.447) and the “UWDRS Part III (0-175) change … (SD)” value (TTM exposure 24 weeks) was −0.97 (8.447). The “UWDRS Part III Functional Subscale (0-10) change from baseline, Mean (SD)” value (TTM exposure 24 weeks) was −0.157 (0.9091), the “UWDRS-III change … (SD)” value (TTM exposure 36 weeks, N=156) was −2.38 (8.581) and the “UWDRS Part III (0-175) change … (SD)” value (TTM exposure 36 weeks) was −2.38 (8.581). The “UWDRS Part III Functional Subscale (0-10) change from baseline, Mean (SD)” value (TTM exposure 36 weeks) was −0.286 (0.9929), the “UWDRS-III change … (SD)” value (TTM exposure 48 weeks, N=156) was −3.37 (9.778) and the “UWDRS Part III (0-175) change … (SD)” value (TTM exposure 48 weeks) was −3.37 (9.778). The “UWDRS Part III Functional Subscale (0-10) change from baseline, Mean (SD)” value (TTM exposure 48 weeks) was −0.345 (1.0940), the “UWDRS-III change … (SD)” value (TTM exposure 60 weeks, N=141) was −2.00 (6.40) and the “UWDRS Part III (0-175) change … (SD)” value (TTM exposure 60 weeks) was −2.00 (6.40). The “UWDRS Part III Functional Subscale (0-10) change from baseline, Mean (SD)” value (TTM exposure 60 weeks) was −0.422 (1.0814), the “UWDRS-III change … (SD)” value (TTM exposure 72 weeks, N=125) was −4.93 (11.682) and the “UWDRS Part III (0-175) change … (SD)” value (TTM exposure 72 weeks) was −4.93 (11.682). The “UWDRS Part III Functional Subscale (0-10) change from baseline, Mean (SD)” value (TTM exposure 72 weeks) was −0.494 (1.2826), the “UWDRS-III change … (SD)” value (TTM exposure 96 weeks, N=66) was −7.95 (14.078) and the “UWDRS Part III (0-175) change … (SD)” value (TTM exposure 96 weeks) was −7.95 (14.078). The “UWDRS Part III Functional Subscale (0-10) change from baseline, Mean (SD)” value (TTM exposure 96 weeks) was −0.900 (1.5193), the “UWDRS-III change … (SD)” value (TTM exposure 120 weeks, N=50) was −8.92 (15.045) and the “UWDRS Part III (0-175) change … (SD)” value (TTM exposure 120 weeks) was −8.92 (15.045). The “UWDRS Part III Functional Subscale (0-10) change from baseline, Mean (SD)” value (TTM exposure 120 weeks) was −0.946 (1.7746), the “UWDRS-III change … (SD)” value (TTM exposure 144 weeks, N=42) was −9.78 (15.423) and the “UWDRS Part III (0-175) change … (SD)” value (TTM exposure 144 weeks) was −9.78 (15.423).
